# Test results as given in patent US20120004166A1, “ARYLOXYALKYLENE-SUBSTITUTED HYDROXYPHENYLHEXYNOIC ACIDS, PROCESS FOR PREPARATION THEREOF AND USE THEREOF AS A MEDICAMENT” (SANOFI, priority 2010, published 2012).
# Molecular target: T1, GPCR GPR40 (Rattus norvegicus, UniProt Q8K3T4)
# T1 construct: expressed in transfected cells; host or cells: HEK293
# Assay: In vitro FLIPR assay with recombinant cells which express the GPCR GPR40
# Type: cell-based
# Conditions: recombinant HEK293 cells expressing rat GPR40; agonist-induced change in intracellular Ca2+ (Fluo-4, FLIPR); 100% = 10 μM linoleic acid
# Method: In Vitro FLIPR Assay with Recombinant Cells which Express the GPCR GPR40
# Function-testing assays were performed by means of the FLIPR technique (“Fluorescence Imaging Plate Reader”, Molecular Devices Corp.). To this end, agonist-induced changes in the intracellular concentration of Ca^2+ were determined in recombinant HEK293 cells which expressed the GPCR GPR40 (species: rat). For the studies, cells were sown into 96-well microtiter plates (60 000 cells/well) and left to grow overnight. The medium was removed and the cells were incubated in buffer which contained the fluorescent dye Fluo-4. After this loading with dye, the cells were washed, test substance was added and changes in the intracellular Ca^2+ concentration were measured in the FLIPR unit. Results were presented as the percentage change relative to the control (0%: no test substance added; 100%: 10 μM reference agonist linoleic acid added) and used to calculate dose/effect curves, and EC50 values were determined.
# T1 sequence (Q8K3T4 whole entry): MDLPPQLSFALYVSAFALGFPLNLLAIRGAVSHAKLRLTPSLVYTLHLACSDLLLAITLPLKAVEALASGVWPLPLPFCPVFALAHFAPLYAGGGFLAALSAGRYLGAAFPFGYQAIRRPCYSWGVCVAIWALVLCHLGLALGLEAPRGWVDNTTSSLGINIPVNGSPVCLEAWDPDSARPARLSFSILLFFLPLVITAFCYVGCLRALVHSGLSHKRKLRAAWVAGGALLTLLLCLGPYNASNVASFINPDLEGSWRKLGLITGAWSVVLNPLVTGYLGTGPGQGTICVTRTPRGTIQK
row,SMILES,EC50 [nM]
1,"CC#CC(CC(=O)O)c1ccc(OCCC(C)Oc2ccc(C(F)(F)F)cc2)cc1 (single isomer, unassigned) [Example 23, 3-{4-[(S or R)-3-(4-Trifluoromethylphenoxy)butoxy]phenyl}hex-4-ynoic acid]",210
2,"CC#CC(CC(=O)O)c1ccc(OCCC(C)Oc2ccc(C(F)(F)F)cc2)cc1 (single isomer, unassigned) [Example 24, 3-{4-[(R or S)-3-(4-Trifluoromethylphenoxy)butoxy]phenyl}hex-4-ynoic acid]",980
3,"CC#CC(CC(=O)O)c1ccc(OCCCOc2cccc(C(C)(C)C)c2)cc1 (stereo not shown) [Example 1, 3-{4-[3-(3-tert-Butylphenoxy)propoxy]phenyl}hex-4-ynoic acid]",440
4,"CC#CC(CC(=O)O)c1ccc(OCCOc2cccc(C(C)(C)C)c2)cc1 (stereo not shown) [Example 2, 3-{4-[2-(3-tert-Butylphenoxy)ethoxy]phenyl}hex-4-ynoic acid]",50
5,"CC#CC(CC(=O)O)c1ccc(OCCCCOc2cccc(C(C)(C)C)c2)cc1 (stereo not shown) [Example 3, 3-{4-[4-(3-tert-Butylphenoxy)butoxy]phenyl}hex-4-ynoic acid]",350
6,"CC#CC(CC(=O)O)c1ccc(OCCCOc2ccc(C(F)(F)F)cc2Cl)cc1 (stereo not shown) [Example 4, 3-{4-[3-(2-chloro-4-trifluoromethylphenoxy)propoxy]phenyl}hex-4-ynoic acid]",110
7,"CC#CC(CC(=O)O)c1ccc(OCCCOc2cc(C(F)(F)F)cc(C(F)(F)F)c2)cc1 (stereo not shown) [Example 5, 3-{4-[3-(3,5-bis(Trifluoromethyl)phenoxy)propoxy]phenyl}hex-4-ynoic acid]",400
8,"CC#CC(CC(=O)O)c1ccc(OCCCOc2ccccc2C(F)(F)F)cc1 (stereo not shown) [Example 6, 3-{4-[3-(2-Trifluoromethylphenoxy)propoxy]phenyl}hex-4-ynoic acid]",170
9,"CC#CC(CC(=O)O)c1ccc(OCCCOc2cccc(C(F)(F)F)c2Cl)cc1 (stereo not shown) [Example 7, 3-{4-[3-(2-Chloro-3-trifluoromethylphenoxy)propoxy]phenyl}hex-4-ynoic acid]",720
10,"CC#CC(CC(=O)O)c1ccc(OCCCOc2ccc(C(F)(F)F)nc2)cc1 (stereo not shown) [Example 8, 3-{4-[3-(6-Trifluoromethylpyridin-3-yloxy)propoxy]phenyl}hex-4-ynoic acid]",350
11,"CC#CC(CC(=O)O)c1ccc(OCCCOc2cc(C(F)(F)F)ccc2Cl)cc1 (stereo not shown) [Example 9, 3-{4-[3-(2-Chloro-5-trifluoromethylphenoxy)propoxy]phenyl}hex-4-ynoic acid]",610
12,"CC#CC(CC(=O)O)c1ccc(OCCOc2ccc(C(F)(F)F)nc2)cc1 (stereo not shown) [Example 10, 3-{4-[2-(6-Trifluoromethylpyridin-3-yloxy)ethoxy]phenyl}hex-4-ynoic acid]",550
13,"CC#CC(CC(=O)O)c1ccc(OCCCOc2ccc(C(F)(F)F)cc2)cc1 (stereo not shown) [Example 11, 3-{4-[3-(4-Trifluoromethylphenoxy)propoxy]phenyl}hex-4-ynoic acid]",80
14,"CC#CC(CC(=O)O)c1ccc(OCCCOc2cccc(C)c2)cc1 (stereo not shown) [Example 12, 3-{4-[3-m-Tolyloxypropoxy]phenyl}hex-4-ynoic acid]",70
15,CC#CC(CC(=O)O)c1ccc(OCCOc2cccc(Cl)c2)cc1 (stereo not shown) [Example 13],40
16,"CC#CC(CC(=O)O)c1ccc(OCCOc2cccc(C)c2)cc1 (stereo not shown) [Example 14, 3-{4-[2-m-Tolyloxyethoxy]phenyl}hex-4-ynoic acid]",50
17,"CC#CC(CC(=O)O)c1ccc(OCCOc2cccc(C(F)(F)F)c2)cc1 (stereo not shown) [Example 15, 3-{4-[2-(3-Trifluoromethylphenoxy)ethoxy]phenyl}hex-4-ynoic acid]",60
18,"CC#CC(CC(=O)O)c1ccc(OCCOc2ccc(C(C)(C)C)cc2)cc1 (stereo not shown) [Example 16, 3-{4-[2-(4-tert-Butylphenoxy)ethoxy]phenyl}hex-4-ynoic acid]",610
19,"CC#CC(CC(=O)O)c1ccc(OCCOc2ccccc2)cc1 (stereo not shown) [Example 17, 3-{4-[2-Phenoxyethoxy]phenyl}hex-4-ynoic acid]",360
